For orientation: IC50 means the point on the concentration scale where inhibition reaches its midpoint.

Numbered stars: 1 amine (or outer) side, 2 acyl side, 3 side chain; on linkers, the order of the positions; unused ones are H or OH. Square brackets hold non-standard residues; d marks the D form. Peptide text beside a SMILES is read from it. X1 = Cc1c(COc2ccc(C[C@H](N[*:1])C(=O)[*:2])cc2Br)cccc1-c1ccccc1

For one test, the target named is T1, PD-1/PD-L1 interaction (Homo sapiens, UniProt Q9NZQ7).
T1 construct: purchased PerkinElmer AL356 HV/C/F
T1 sequence (Q9NZQ7 19-238 limits assumed): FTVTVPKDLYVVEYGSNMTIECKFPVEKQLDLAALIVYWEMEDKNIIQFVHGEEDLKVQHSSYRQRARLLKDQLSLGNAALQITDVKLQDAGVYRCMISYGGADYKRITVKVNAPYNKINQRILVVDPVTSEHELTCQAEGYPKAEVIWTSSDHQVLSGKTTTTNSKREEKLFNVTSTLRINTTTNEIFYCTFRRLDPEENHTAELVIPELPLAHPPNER
Nature of the test: AlphaLISA amplified luminescence proximity homogeneous assay, inhibition of PD-1/PD-L1 binding. Conditions: AlphaLISA, His-tagged PD-L1 and biotin-conjugated PD-1, 25 °C, 90 min. (In general: Bead proximity is the source of the signal in Alpha formats.)
Description: To evaluate the binding affinities of the compounds for PD-L1, we used the amplified luminescence proximity homogeneous assay (Alpha) by using the AlphaLISA® assay kit [38]. This assay is based on photoinduced energy transfer between donor and acceptor beads conjugated to PD-1 and PD-L1, respectively (Figure S6).
In this assay, direct binding of an inhibitor to PD-L1 is detected by photoinduced energy transfer (Figure S6). Biotin-conjugated PD-1 is attached to streptavidin-coated donor beads and histidine (His)-tagged PD-L1 is attached to anti-His-conjugated acceptor beads. Photoexcitation of the donor beads at 680 nm yields singlet oxygen.
Positive and negative technical controls were included in parallel. Positive controls contained buffer (2 μL) in place of solution 1–10, and negative controls contained only the beads (2 μL each) and buffer (6 μL).
The reaction samples (10 μM) were placed in a 384-well microplate and photoirradiated at 680 nm from the top. […] IC50 values were estimated from a sigmoidal curve of fluorescence intensity vs. inhibitor concentration using a relative weighting method (1/Y^2 weighting) with GraphPad Prism 8 (GraphPad Software Inc., San Diego, CA, USA).
`Cc1c(CO)cccc1-c1ccccc1` [Compound1, 3-hydroxymethyl-2-methylbiphenyl]: the IC50 stood at 309 µM.
Still for that read-out and setting: the same measure for `CC[C@H](C)[C@H](NC(=O)[C@H](CC(N)=O)NC(=O)[C@H](CC(N)=O)NC(=O)[C@H](Cc1ccc(OCc2cccc(-c3ccccc3)c2C)c(Br)c1)NC(=O)[C@H](CCCNC(=N)N)NC(=O)[C@H](Cc1c[nH]c2ccccc12)NC(=O)[C@@H](N)Cc1ccccc1)C(=O)O` [FWRXNNI] (H-FWR[X1]NNI-OH): 312 µM.
In the case of `CC(C)(C)OC(=O)[C@H](Cc1ccc(O)c(Br)c1)NC(=O)OCC1c2ccccc2-c2ccccc21` [Compound4, (S)-tert-Butyl 2-({[(9H-fluoren-9-yl)methoxy]carbonyl}amino)-3-(3-bromo-4-hydroxyphenyl)propanoate], the IC50 worked out at 1060 µM. This IC50 is about 3.4-fold higher than that of the molecule before.
`Cc1c(COc2ccc(C[C@H](N)C(=O)N[C@@H](C)C(=O)O)cc2Br)cccc1-c1ccccc1` [XA] returned a half-inhibitory concentration (IC50) of 22.3 µM.
Take `Cc1c(COc2ccc(C[C@H](N)C(=O)N[C@@H](Cc3c[nH]c4ccccc34)C(=O)O)cc2Br)cccc1-c1ccccc1` [XW]: the 50% inhibitory concentration (IC50) came out at 845 µM.
Molecule `Cc1c(COc2ccc(C[C@H](NC(=O)OCC3c4ccccc4-c4ccccc43)C(=O)O)cc2Br)cccc1-c1ccccc1` [Compound6, (S)-2-({[(9H-fluoren-9-yl)methoxy]carbonyl}amino)-3-{3-bromo-4-[(2-methyl-1,1’-biphenyl-3-yl)methoxy]phenyl}propanoic acid] came in with an IC50 of 1420 µM. This IC50 is about 1.7-fold higher than that of the molecule before.
Molecule `Cc1c(COc2ccc(C[C@H](NC(=O)[C@@H](N)Cc3c[nH]c4ccccc34)C(=O)NCC(=O)O)cc2Br)cccc1-c1ccccc1` [WXG] had an IC50 of 405 µM.
Take `Cc1c(COc2ccc(C[C@H](N)C(=O)N[C@@H](CO)C(=O)O)cc2Br)cccc1-c1ccccc1` [XS]: the IC50 stood at 2650 µM.
Consider `CSCC[C@H](NC(=O)[C@H](CCCCN)NC(=O)[C@H](CC(N)=O)NC(=O)[C@H](Cc1ccc(OCc2cccc(-c3ccccc3)c2C)c(Br)c1)NC(=O)[C@H](CCCNC(=N)N)NC(=O)[C@H](CCC(=O)O)NC(=O)[C@@H](N)CS)C(=O)O` [CERXNKM] (H-CER[X1]NKM-OH), for which the IC50 came to 308 µM.
On the same count and under the same terms, the value for `Cc1c(COc2ccc(C[C@H](N)C(=O)NCC(=O)NCC(=O)O)cc2Br)cccc1-c1ccccc1` [XGG] was 6510 µM; that for `Cc1c(COc2ccc(C[C@H](NC(=O)CN)C(=O)O)cc2Br)cccc1-c1ccccc1` [GX] was 448 µM; that for `Cc1c(COc2ccc(C[C@H](N)C(=O)O)cc2Br)cccc1-c1ccccc1` [X, (S)-2-amino-3-[3-bromo-4-{(2-methyl-1,1′-biphenyl-3-yl)methoxy}phenyl]propanoic acid] was 1.5 µM.
Still for that read-out and setting: the same measure for `Cc1c(COc2ccc(C[C@H](NC(=O)OCC3c4ccccc4-c4ccccc43)C(=O)OC(C)(C)C)cc2Br)cccc1-c1ccccc1` [Compound5, (S)-tert-Butyl 2-({[(9H-fluoren-9-yl)methoxy]carbonyl}amino)-3-{3-bromo-4-[(2-methyl-1,1’-biphenyl-3-yl)methoxy]phenyl}propanoate]: 897 µM; for `Cc1c(COc2ccc(C[C@H](NC(=O)[C@@H](N)CCCNC(=N)N)C(=O)N[C@@H](CC(N)=O)C(=O)O)cc2Br)cccc1-c1ccccc1` [RXN]: 405 µM.
For the molecule `Cc1c(COc2ccc(C[C@H](N)C(=O)NCC(=O)O)cc2Br)cccc1-c1ccccc1` [XG], the IC50 was 2.1 µM.

Still in this test, the particulars now being: AlphaLISA, positive control.
For the molecule “nivolumab: anti-PD-1 mAb, positive control [reference compound]”, the half-inhibitory concentration (IC50) is 0.0051 µM.

Staying with this test, now noted: X (1.5 μM) vs BMS-8 ([…]).
For `Cc1c(COc2ccc(C[C@H](N)C(=O)O)cc2Br)cccc1-c1ccccc1` [X, (S)-2-amino-3-[3-bromo-4-{(2-methyl-1,1′-biphenyl-3-yl)methoxy}phenyl]propanoic acid], the “improvement of IC50 relative to BMS-8” value is listed as “about five”.

For the origin of these results see article PMC7279355, “Preparation of Biphenyl-Conjugated Bromotyrosine for Inhibition of PD-1/PD-L1 Immune Checkpoint Interactions” (International Journal of Molecular Sciences, 2020).
